Holding throughout (test): DSF 100 kinase selectivity screen;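 further: compound tested at 20 µM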
Common to all, as to type: binding

The target in test [1] is T1, ~100 representative kinases (Homo sapiens, UniProt P78368).
T1 construct: Recombinant protein kinase domains with a concentration of 2 μM
To be noted: Protein CSNK1G2; average of three replicates. The gist of the method:
(§1)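 Each kinase domain, at 2 μM, is mixed with 20 μM test compound and SYPRO Orange in Hepes (20 mM, pH 7.5) with 500 mM NaCl. Temperature is then raised at 3°C/min and fluorescence-monitored unfolding yields the melting temperature change, ΔTm in degrees Celsius.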

Test [2] addresses T2, ~100 representative kinases (Homo sapiens, UniProt O75385).
T2 construct: Recombinant protein kinase domains with a concentration of 2 μM
T2 sequence (O75385 1-1050): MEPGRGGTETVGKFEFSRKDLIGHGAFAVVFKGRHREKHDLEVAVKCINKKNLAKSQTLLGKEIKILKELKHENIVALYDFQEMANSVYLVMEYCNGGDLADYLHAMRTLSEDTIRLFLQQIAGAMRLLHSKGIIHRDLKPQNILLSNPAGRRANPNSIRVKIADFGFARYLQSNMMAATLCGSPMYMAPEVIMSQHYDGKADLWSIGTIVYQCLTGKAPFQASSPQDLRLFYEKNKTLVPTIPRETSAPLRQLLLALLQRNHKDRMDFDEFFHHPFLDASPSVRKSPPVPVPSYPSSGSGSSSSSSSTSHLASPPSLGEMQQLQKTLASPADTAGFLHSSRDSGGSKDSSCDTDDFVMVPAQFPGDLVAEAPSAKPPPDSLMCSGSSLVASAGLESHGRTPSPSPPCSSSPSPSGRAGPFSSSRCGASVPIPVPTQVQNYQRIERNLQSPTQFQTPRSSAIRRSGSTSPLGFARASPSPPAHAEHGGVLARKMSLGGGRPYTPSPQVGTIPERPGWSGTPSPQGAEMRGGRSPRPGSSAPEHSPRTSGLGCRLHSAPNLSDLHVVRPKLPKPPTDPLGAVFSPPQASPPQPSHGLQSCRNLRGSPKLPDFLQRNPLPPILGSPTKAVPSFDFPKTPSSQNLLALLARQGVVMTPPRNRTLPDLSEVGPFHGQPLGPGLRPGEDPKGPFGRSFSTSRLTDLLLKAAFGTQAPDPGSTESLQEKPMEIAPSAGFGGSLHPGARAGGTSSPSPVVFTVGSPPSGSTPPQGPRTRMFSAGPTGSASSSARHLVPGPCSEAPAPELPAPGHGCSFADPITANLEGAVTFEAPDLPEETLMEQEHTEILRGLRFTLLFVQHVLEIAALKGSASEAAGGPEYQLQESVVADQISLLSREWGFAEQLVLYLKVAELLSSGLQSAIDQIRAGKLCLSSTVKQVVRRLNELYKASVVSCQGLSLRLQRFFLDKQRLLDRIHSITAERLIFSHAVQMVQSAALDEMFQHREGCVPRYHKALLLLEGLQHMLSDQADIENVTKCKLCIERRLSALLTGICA
To be noted: Protein ULK1; DSF; average of three replicates. A digest of the protocol:
as §1

The target in test [3] is T3, ~100 representative kinases (Homo sapiens, UniProt Q02750).
T3 construct: Recombinant protein kinase domains with a concentration of 2 μM
T3 sequence (Q02750 whole entry, the tested form may be a part): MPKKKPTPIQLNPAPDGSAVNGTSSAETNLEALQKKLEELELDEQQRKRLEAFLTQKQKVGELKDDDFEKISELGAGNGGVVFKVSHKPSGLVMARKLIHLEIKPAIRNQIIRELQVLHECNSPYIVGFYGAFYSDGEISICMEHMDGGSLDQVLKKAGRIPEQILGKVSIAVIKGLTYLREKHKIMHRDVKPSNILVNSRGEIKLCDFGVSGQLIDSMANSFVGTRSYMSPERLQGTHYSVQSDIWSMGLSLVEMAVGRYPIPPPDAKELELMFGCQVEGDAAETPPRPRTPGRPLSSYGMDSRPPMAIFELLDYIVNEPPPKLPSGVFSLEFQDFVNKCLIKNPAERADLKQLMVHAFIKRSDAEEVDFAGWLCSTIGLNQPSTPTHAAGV
To be noted: protein MAP2K1; average of three replicates. The gist of the method:
as §1

In test [4] the target is T4, ~100 representative kinases (Homo sapiens, UniProt O15164).
T4 construct: Recombinant protein kinase domains with a concentration of 2 μM
T4 sequence (O15164 1-1050): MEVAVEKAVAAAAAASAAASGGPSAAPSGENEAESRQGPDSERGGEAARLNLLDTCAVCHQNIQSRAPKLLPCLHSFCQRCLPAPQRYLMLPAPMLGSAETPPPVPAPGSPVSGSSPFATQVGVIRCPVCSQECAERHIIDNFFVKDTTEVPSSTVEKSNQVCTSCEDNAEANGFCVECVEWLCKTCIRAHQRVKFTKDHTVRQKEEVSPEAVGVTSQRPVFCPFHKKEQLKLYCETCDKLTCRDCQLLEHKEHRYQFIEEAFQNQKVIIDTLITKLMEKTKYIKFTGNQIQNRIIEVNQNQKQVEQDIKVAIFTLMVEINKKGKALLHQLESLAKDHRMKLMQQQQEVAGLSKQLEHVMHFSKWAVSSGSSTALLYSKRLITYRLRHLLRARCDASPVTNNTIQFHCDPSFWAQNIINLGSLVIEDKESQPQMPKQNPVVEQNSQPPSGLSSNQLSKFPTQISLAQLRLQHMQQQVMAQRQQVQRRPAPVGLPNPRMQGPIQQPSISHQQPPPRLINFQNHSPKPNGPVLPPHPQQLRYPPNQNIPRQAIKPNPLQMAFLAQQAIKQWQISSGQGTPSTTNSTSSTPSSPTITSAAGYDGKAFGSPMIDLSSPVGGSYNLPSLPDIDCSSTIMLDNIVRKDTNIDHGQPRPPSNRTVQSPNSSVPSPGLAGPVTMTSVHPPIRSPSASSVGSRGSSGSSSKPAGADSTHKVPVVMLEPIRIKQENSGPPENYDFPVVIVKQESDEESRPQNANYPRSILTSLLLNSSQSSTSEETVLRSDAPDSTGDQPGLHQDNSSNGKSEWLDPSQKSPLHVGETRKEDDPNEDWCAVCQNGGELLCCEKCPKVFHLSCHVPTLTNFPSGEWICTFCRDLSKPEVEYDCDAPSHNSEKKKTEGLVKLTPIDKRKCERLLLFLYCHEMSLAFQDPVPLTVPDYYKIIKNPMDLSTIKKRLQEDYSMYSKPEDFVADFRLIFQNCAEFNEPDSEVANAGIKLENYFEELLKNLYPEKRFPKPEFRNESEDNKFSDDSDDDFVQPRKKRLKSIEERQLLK
The following applies: Protein TIF1; DSF; average of three replicates. The gist of the method:
as §1

For test [5], the target named is T5, ~100 representative kinases (Homo sapiens, UniProt Q96GD4).
T5 construct: Recombinant protein kinase domains with a concentration of 2 μM
T5 sequence (Q96GD4 whole entry, the tested form may be a part): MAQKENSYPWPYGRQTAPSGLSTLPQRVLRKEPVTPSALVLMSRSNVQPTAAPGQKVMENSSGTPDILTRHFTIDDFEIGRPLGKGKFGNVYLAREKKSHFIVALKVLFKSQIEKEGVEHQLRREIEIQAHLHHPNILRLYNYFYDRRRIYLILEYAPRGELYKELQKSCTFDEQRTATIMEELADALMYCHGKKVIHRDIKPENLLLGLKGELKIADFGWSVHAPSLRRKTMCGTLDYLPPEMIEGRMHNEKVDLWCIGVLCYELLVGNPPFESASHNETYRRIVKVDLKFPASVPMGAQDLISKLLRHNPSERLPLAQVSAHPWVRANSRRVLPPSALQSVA
The following applies: Protein AURKB; average of three replicates. A digest of the protocol: as §1

Test [6] deals with T6, ~100 representative kinases (Homo sapiens, UniProt P22607).
T6 construct: Recombinant protein kinase domains with a concentration of 2 μM
T6 sequence (P22607 23-806): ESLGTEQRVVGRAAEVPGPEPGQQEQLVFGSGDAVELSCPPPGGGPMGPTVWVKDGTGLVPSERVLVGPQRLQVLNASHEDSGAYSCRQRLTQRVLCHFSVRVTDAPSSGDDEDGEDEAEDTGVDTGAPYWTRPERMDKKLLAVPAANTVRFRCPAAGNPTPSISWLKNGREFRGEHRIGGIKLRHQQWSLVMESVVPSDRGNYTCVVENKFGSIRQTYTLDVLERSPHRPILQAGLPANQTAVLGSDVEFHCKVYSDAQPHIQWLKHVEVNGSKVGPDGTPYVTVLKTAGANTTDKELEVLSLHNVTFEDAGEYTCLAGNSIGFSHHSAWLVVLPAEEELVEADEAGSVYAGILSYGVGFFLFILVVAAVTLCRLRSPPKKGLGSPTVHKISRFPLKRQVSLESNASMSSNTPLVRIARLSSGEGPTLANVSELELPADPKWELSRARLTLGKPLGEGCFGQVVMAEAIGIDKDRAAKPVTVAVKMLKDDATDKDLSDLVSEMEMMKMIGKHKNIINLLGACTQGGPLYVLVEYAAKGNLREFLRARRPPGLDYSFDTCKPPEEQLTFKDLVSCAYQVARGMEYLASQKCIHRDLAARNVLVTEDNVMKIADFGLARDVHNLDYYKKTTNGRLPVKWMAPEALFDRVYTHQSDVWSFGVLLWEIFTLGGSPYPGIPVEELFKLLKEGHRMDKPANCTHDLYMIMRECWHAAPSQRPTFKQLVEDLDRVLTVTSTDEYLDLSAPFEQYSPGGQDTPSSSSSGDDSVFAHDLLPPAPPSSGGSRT
The following applies: protein FGFR3; average of three replicates. A digest of the protocol: as §1

27 compounds from publication PMC12136037, “Type II kinase inhibitors that target Parkinson’s disease–associated LRRK2” (Science Advances, 2025) can be followed below.

T1 sequence (P78368 whole entry, the tested form may be a part): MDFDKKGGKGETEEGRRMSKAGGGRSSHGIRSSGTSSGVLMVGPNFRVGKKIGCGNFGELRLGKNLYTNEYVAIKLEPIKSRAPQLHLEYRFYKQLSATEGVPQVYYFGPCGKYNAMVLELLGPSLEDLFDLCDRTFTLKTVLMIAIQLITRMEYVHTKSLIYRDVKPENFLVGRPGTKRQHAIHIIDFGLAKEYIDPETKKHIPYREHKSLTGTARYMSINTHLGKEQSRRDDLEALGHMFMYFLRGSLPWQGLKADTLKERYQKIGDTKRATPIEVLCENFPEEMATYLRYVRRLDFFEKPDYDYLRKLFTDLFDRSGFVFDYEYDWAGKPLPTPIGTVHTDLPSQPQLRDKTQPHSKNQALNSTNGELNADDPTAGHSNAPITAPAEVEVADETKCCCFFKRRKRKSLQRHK

In the case of `O=C(Nc1ccc(F)cc1)C1(C(=O)Nc2cccc(-c3c[nH]c4ncnc(N5CCOCC5)c34)c2)CC1` [Compound 2], in test [1], the dTm is listed as 0.45 K.

In test [1], `O=C(Nc1cccc(-c2c[nH]c3ncnc(N4CCOCC4)c23)c1)c1cccn(-c2ccc(F)cc2)c1=O` [Compound 4] came in with a dTm of 0.40 K.

On to `Cc1cc(NC(=O)C2(C(=O)Nc3ccc(F)cc3)CC2)cc(-c2c[nH]c3ncnc(N4CCOCC4)c23)c1` [Compound 6], for which the dTm was determined as 5.26 K in test [2]; 1.10 K in test [3]; 2.83 K in test [4]; 4.75 K in test [5]; 1.74 K in test [6].

In the case of `O=C(Nc1cccc(-c2c[nH]c3ncnc(N4CCOCC4)c23)c1)C1(C(=O)Nc2cccc3c2CCC3)CC1` [Compound 11], the dTm was 6.92 K in test [2]; 2.12 K in test [3]; 3.41 K in test [4]; -0.43 K in test [5]; 2.85 K in test [6].

Compound `O=C(Nc1ccccc1)C1(C(=O)Nc2cccc(-c3c[nH]c4ncnc(N5CCOCC5)c34)c2)CC1` [Compound 12] registered a dTm in test [1] of 0.39 K.

On to `O=C(Nc1ccc(Cl)cc1)C1(C(=O)Nc2cccc(-c3c[nH]c4ncnc(N5CCOCC5)c34)c2)CC1` [Compound 13], for which the dTm in test [1] is recorded as 0.51 K.

For the compound `Cc1ccc(NC(=O)C2(C(=O)Nc3cccc(-c4c[nH]c5ncnc(N6CCOCC6)c45)c3)CC2)cc1` [Compound 14], the dTm in test [1] is 0.81 K.

On to `CCc1ccc(NC(=O)C2(C(=O)Nc3cccc(-c4c[nH]c5ncnc(N6CCOCC6)c45)c3)CC2)cc1` [Compound 15], for which the dTm in test [1] was 0.60 K.

`COc1ccc(NC(=O)C2(C(=O)Nc3cccc(-c4c[nH]c5ncnc(N6CCOCC6)c45)c3)CC2)cc1` [Compound 16]: in test [1], the dTm is 0.71 K.

As for `O=C(Nc1cccc(-c2c[nH]c3ncnc(N4CCOCC4)c23)c1)C1(C(=O)Nc2ccc(F)c(F)c2)CC1` [Compound 17], the dTm in test [1] came to 0.36 K.

Compound `O=C(Nc1cccc(-c2c[nH]c3ncnc(N4CCOCC4)c23)c1)C1(C(=O)Nc2ccc(F)c(Cl)c2)CC1` [Compound 18] displayed a dTm in test [1] of 0.27 K.

In the case of `O=C(Nc1cccc(-c2c[nH]c3ncnc(N4CCOCC4)c23)c1)C1(C(=O)Nc2ccc(F)c(Br)c2)CC1` [Compound 19], the dTm in test [2] is recorded as 12.52 K; in test [3], 2.40 K; in test [4], 3.26 K; in test [5], 5.64 K; in test [6], 4.74 K.

In test [1], `Cc1cc(NC(=O)C2(C(=O)Nc3cccc(-c4c[nH]c5ncnc(N6CCOCC6)c45)c3)CC2)ccc1F` [Compound 20] had a dTm of 0.39 K.

Take `COc1cc(NC(=O)C2(C(=O)Nc3cccc(-c4c[nH]c5ncnc(N6CCOCC6)c45)c3)CC2)ccc1F` [Compound 21]: the dTm in test [1] was 0.57 K.

Turning to `CC(C)(C)c1cccc(NC(=O)C2(C(=O)Nc3cccc(-c4c[nH]c5ncnc(N6CCOCC6)c45)c3)CC2)c1` [Compound 22], the dTm worked out at 9.16 K in test [2]; 2.23 K in test [3]; 5.42 K in test [4]; 1.96 K in test [5]; 4.54 K in test [6].

Take `O=C(Nc1cccc(-c2c[nH]c3ncnc(N4CCOCC4)c23)c1)C1(C(=O)Nc2ccc(F)cc2F)CC1` [Compound 23]: the dTm in test [1] was found to be 0.54 K.

`Cc1cc(F)ccc1NC(=O)C1(C(=O)Nc2cccc(-c3c[nH]c4ncnc(N5CCOCC5)c34)c2)CC1` [Compound 24] returned a dTm in test [1] of 0.62 K.

Take `CC(C)(C)c1cc(NC(=O)Nc2cccc(-c3c[nH]c4ncnc(N5CCOCC5)c34)c2)n(-c2ccc3ncccc3c2)n1` [Compound 28]: in test [1], the dTm was determined as 0.05 K.

In the case of `Cc1ccc(-n2nc(C(C)(C)C)cc2NC(=O)Nc2cccc(-c3c[nH]c4ncnc(N5CCOCC5)c34)c2)cc1` [Compound 29], the dTm in test [2] was found to be 10.70 K; in test [3], 2.87 K; in test [4], 0.97 K; in test [5], 3.15 K.

Turning to `Cc1ccc(-n2nc(C(C)(C)C)cc2NC(=O)Nc2cccc(-c3c[nH]c4nc(Cl)nc(N5CCOCC5)c34)c2)cc1` [Compound 30], the dTm in test [2] is 2.91 K; in test [3] it was 0.49 K; in test [4], 1.73 K; in test [5] it was -0.56 K.

As to `CC(=O)N1CCN(c2nc(Cl)nc3[nH]cc(-c4cccc(NC(=O)Nc5cc(C(C)(C)C)nn5-c5ccc(C)cc5)c4)c23)CC1` [Compound 31], the dTm in test [2] is recorded as 2.80 K; in test [3], 0.59 K; in test [4], 0.90 K; in test [5], -1.00 K.

`CCSc1nc(NC)c2c(-c3cccc(NC(=O)Nc4cc(C(C)(C)C)nn4-c4ccc(C)cc4)c3)c[nH]c2n1` [Compound 32]: the dTm in test [2] was 0.62 K; in test [3] it was 0.11 K; in test [4], 0.82 K; in test [5], 0.28 K.

On to `COc1cc(C(=O)N2CCOCC2)c(F)cc1Nc1nc(N(C)C)c2c(Cl)c[nH]c2n1` [Compound 36], for which the dTm in test [2] is -0.79 K; in test [3] it was -0.30 K; in test [4], -2.24 K; in test [5] it was 1.54 K.

`COc1cc(S(C)(=O)=O)ccc1Nc1nc(N(C)C)c2c(Cl)c[nH]c2n1` [Compound 37]: the dTm in test [2] is -0.88 K; in test [3] it was -0.22 K; in test [4], -0.80 K; in test [5] it was -0.0653 K.

In test [1], `COc1cc2c(Oc3ccc(NC(=O)C4(C(=O)Nc5ccc(F)cc5)CC4)cc3F)ccnc2cc1OCCCN1CCOCC1` [Foretinib, reference compound] came in with a dTm of 0.37 K.

In the case of `CNC(=O)c1cc(Oc2ccc(NC(=O)Nc3cc(C(C)(C)C)nn3-c3ccc4ncccc4c3)c(F)c2)ccn1` [Rebastinib, reference compound], the dTm is reported as 5.73 K in test [2], 0.92 K in test [3], 0.87 K in test [4] and 1.16 K in test [5].

In turn, `CN[C@@H]1C[C@H]2O[C@@](C)([C@@H]1OC)n1c3ccccc3c3c4c(c5c6ccccc6n2c5c31)C(=O)NC4` [Staurosporine] displayed a dTm in test [2] of 14.02 K.
